Results: patent publication US8349839B2, “Inhibitors of HIV replication” (Boehringer Ingelheim International GmbH, priority 2009, dated 2013)

What was measured:
[1] = target: HIV reverse transcriptase (Human immunodeficiency virus type 1 group M subtype B, UniProt P04585); assay: HIV Reverse Transcriptase Assay (IC50); format: biochemical; settings: assay of Example 67; 1 mM of ATP added to the reaction mixture
Description: (§1) Diluted solutions of stock solutions of compounds of Formula I in DMSO are prepared in assay buffer in Eppendorf tubes 16 h prior to their use in the biological assay, using a minimal supplementary volume of 75 μL of assay buffer in addition to the volume required in the assay. The samples are vortexed for 10 min at RT and incubated for 16 h at 4° C. The equilibrated solutions are centrifuged at 16 000 g for 5 min in a centrifuge equipped with an internal chiller, which is pre-equilibrated at 4° C., and the supernatant is collected. The portion of supernatant required for the serial dilutions in the biological assay is transferred to the compound dilution plate and a 75 μL portion of the remaining supernatant is transferred to a 1.4 mL tube (Micronic). A 25 μL volume of DMSO is promptly added and the sample is submitted for concentration determination by HPLC, along with the stock solution of the compound in DMSO as a standard for concentration determination analysis.
HIV Reverse Transcriptase Assay (IC50)
The assay used to measure inhibition of HIV reverse transcriptase is as described in WO 2006/034583, pages 52-53, incorporated herein by reference, except that 1 mM of ATP was added to the reaction mixture.

[2] = test system: HIV-1 replication in C8166 LTRluc cells; assay: C8166 HIV-1 Luciferase Assay (EC50); format: cell-based; settings: Human immunodeficiency virus 1, 72 h; assay of Example 68; C8166 LTRluc cells infected with HIV-1 at moi 0.005, 3 days
Description: as §1
C8166 HIV-1 Luciferase Assay (EC50)
The assay used to measure inhibition of HIV replication is as described in WO 2004/050643, pages 73-75, incorporated herein by reference, with the following modifications:
Serial dilutions of HIV-1 inhibitors are prepared in complete media from DMSO stock solutions. Eleven serial dilutions of desired concentration are prepared in a 1 mL deep well titer plate (96 wells). The 12th well contains complete media with no inhibitor and serves as the positive control. All samples contain the same concentration of DMSO (<0.1% DMSO). Inhibitor is added, to triplicate wells, of a 96 well tissue culture treated clear view black microtiter plate (Corning Costar catalogue #3904). The total volume per well is 200 μL of media containing the cells and inhibitor. The last row is reserved for uninfected C8166 LTRluc cells to serve as the background blank control and the first row is media alone.
Count C8166 LTRluc cells and place in a minimal volume of complete RPMI 1640 in a tissue culture flask (ex. 30×10^6 cells in 10 mL media/25 cm^2 flask). Infect cells with HIV-1 at a moi of 0.005. Incubate cells for 1.5 h at 37° C. on a rotating rack in a 5% CO2 incubator. Resuspend cells in complete RPMI to give a final concentration of 25,000-cells/well. Add cells to wells of 96 well microtiter plate containing inhibitors. Add 25,000 uninfected C8166-LTRluc cells/well in 200 μL complete RPMI to last row for background control. Incubate cells at 37° C. in 5% CO2 incubator for 3 days.
50 μL Steady Glo (luciferase substrate T1/2=5 hours Promega catalogue # E2520) is added to each well of the 96 well plate. The relative light units (RLU) of luciferase are determined using a luminescence plate reader. The calculated % inhibition values are used to determine EC50, slope factor (n) and maximum inhibition (Imax).

Row | SMILES | IC50 [1] [nM] | EC50 [2] [nM]
1 | O=c1nc(-c2ccccc2)c2oc3ccccc3c2n1CCN1CCCC1 [Compound 1001] | 2350 | –
2 | CN1CCN(CC(=O)Nc2ccc(-c3nc(=O)n(C)c4c3oc3ccccc34)cc2)CC1 [Compound 1002] | 11000 | 15000
3 | COCCn1c(=O)nc(-c2ccc(NC(=O)CN(C)C)cc2)c2oc3ccccc3c21 [Compound 1004] | 1150 | 3600
4 | COCCn1c(=O)nc(-c2ccc(NC(=O)CN3CCOCC3)cc2)c2oc3ccccc3c21 [Compound 1005] | 215 | –
5 | CCNCC(=O)Nc1ccc(-c2nc(=O)n(CCOC)c3c2oc2ccccc23)cc1 [Compound 1009] | 73 | 675
6 | COCCn1c(=O)nc(-c2ccc(NC(=O)NCCN3CCCC3)cc2)c2oc3ccccc3c21 [Compound 1016] | 107 | 6800
7 | COCCn1c(=O)nc(-c2ccc(OCCN(C)C)cc2)c2oc3ccccc3c21 [Compound 1036] | 633 | 14000
8 | CCNCC(=O)Nc1ccc(-c2nc(=O)n(C)c3c2oc2ccccc23)cc1 [Compound 1051] | 520 | 980
9 | COCCn1c(=O)nc(-c2ccc(NC(=O)CN3CCCC3)c(OC)c2)c2oc3ccccc3c21 [Compound 1056] | 2500 | –
10 | COCCn1c(=O)nc(-c2ccc(N(C)CCN(C)C)nc2)c2oc3ccccc3c21 [Compound 1070] | 310 | 1200
11 | COCCn1c(=O)nc(-c2ccc(N3CCN(C(C)C)CC3)nc2)c2oc3ccccc3c21 [Compound 1073] | 107 | 720
12 | O=c1nc(-c2ccccc2)c2oc3ccc(Cl)cc3c2n1CCN1CCCC1 [Compound 2001] | 593 | 3700
13 | O=c1nc(-c2ccccc2)c2oc3ccc(Cl)cc3c2n1CCN1CCC(F)(F)C1 [Compound 2009] | 323 | 2900
14 | CCNCC(=O)Nc1ccc(-c2nc(=O)n(CCOC)c3c2oc2ccc(-c4cncs4)cc23)cc1 [Compound 2021] | 20 | 200
15 | CN1CCc2cc(-c3ccc4oc5c(-c6ccc(F)cc6)nc(=O)n(CCN6CCCC6C(N)=O)c5c4c3)ccc2C1 (centres unmarked) [Compound 2025] | 35 | 52
16 | CC(=O)N(C)C1CCN(CCn2c(=O)nc(-c3ccccc3)c3oc4ccc(Br)cc4c32)C1 (centres unmarked) [Compound 2038] | 250 | 2900
17 | CCNCC(=O)Nc1ccc(-c2nc(=O)n(CCOC)c3c2oc2ccc(-c4ccc5c(c4)N(C)CCC5)cc23)cc1 [Compound 2039] | 24 | 440
18 | CCNCC(=O)Nc1ccc(-c2nc(=O)n(CCOC)c3c2oc2ccc(-c4cccc5c4CCN(C)C5)cc23)cc1 [Compound 2115] | 1150 | –
19 | COCCn1c(=O)nc(-c2ccc(N)cc2)c2oc3ccc(Br)cc3c21 [Compound 2133] | 760 | 4650

Row | SMILES | IC50 [1] [nM] | EC50 [2] [nM]
20 | COCCn1c(=O)nc(-c2ccc(NS(C)(=O)=O)cc2)c2oc3ccc(-c4ccc(CN(C)C)cc4)cc3c21 [Compound 2194] | 395 | 1500
21 | CN(C)Cc1ccc(-c2ccc3oc4c(-c5ccccc5)nc(=O)n(-c5ccccc5)c4c3c2)cc1 [Compound 2213] | 86 | 235
22 | CN1CCN(c2ccc(-c3nc(=O)n(CCN4CCCC4)c4c3oc3ccc(Cl)cc34)cn2)CC1 [Compound 2232] | 22 | 240
23 | CNC1CCN(c2ccc(-c3nc(=O)n(CCOC)c4c3oc3ccc(Cl)cc34)cn2)C1 (centres unmarked) [Compound 2254] | 40 | 210
24 | CN1CCN(c2ccc(-c3nc(=O)n(C)c4c3oc3ccc(Br)cc34)cn2)CC1 [Compound 2257] | 31 | 190
25 | COCCn1c(=O)nc(-c2ccc(N3CCN(C)CC3)nc2)c2oc3ccc(Cl)cc3c21 [Compound 2260] | 75 | 890
26 | CCNCc1nc2cc(-c3nc(=O)n(CCCOC)c4c3oc3ccc(Cl)cc34)ccc2n1C [Compound 2273] | 8 | 58
27 | CC(C)N1CCN(c2ccc(-c3nc(=O)n(CC(=O)N4CC[C@H](F)C4)c4c3oc3ccc(Cl)cc34)cn2)CC1 [Compound 2277] | 7 | 92
28 | CCCCCn1c(=O)nc(-c2ccc3c(c2)nc(C)n3C)c2oc3ccc(-c4cnn(C)c4)cc3c21 [Compound 2287] | 5 | 18
29 | CN(C)Cc1ccc(-c2ccc3oc4c(-c5ccccc5)nc(=O)n(CC(=O)NC5CC5)c4c3c2)cc1 [Compound 2310] | 1000 | –
30 | CN(C)Cc1ccc(-c2ccc3oc4c(c3c2)N(CC2CCCO2)S(=O)(=O)N=C4c2ccccc2)cc1 (centres unmarked) [Compound 3003] | > 225 | 950
31 | COCCCN1c2c(oc3ccc(-c4ccc(CN(C)C)cc4)cc23)C(c2ccccc2)=NS1(=O)=O [Compound 3004] | > 205 | 520
32 | O=C(O)Cn1c2ccc(Cl)cc2c2c1c(-c1ccccc1)nc(=O)n2CCN1CCCC1 [Compound 4001] | 280 | 5800
33 | COCCCN1CCN(c2ccc(-c3nc(=O)n(CCCOC)c4c3oc3ncccc34)cn2)CC1 [Compound 5001] | 60 | 590
34 | COCCCn1c(=O)nc(-c2ccc(N3CCC(NCC(F)F)CC3)nc2)c2oc3ncc(-c4cnn(C)c4)cc3c21 [Compound 5004] | 14 | –
35 | COCCCn1c(=O)nc(-c2ccc(N3CCN(C(C)C)CC3)nc2)c2oc3cnccc3c21 [Compound 5019] | 25 | 280
36 | CCCCCn1c(=O)nc(-c2ccc(N3CCN(C)CC3)nc2)c2oc3ncc(C#N)cc3c21 [Compound 5024] | 6 | 32
37 | COCCCn1c(=O)nc(-c2ccc(N3CCN(C)CC3)nc2)c2oc3ncc(-c4cncs4)cc3c21 [Compound 5028] | 4.1 | 21
